We go through 24 compounds from ChEMBL document CHEMBL3124843, “Synthesis, cytostatic, antimicrobial, and anti-HCV activity of 6-substituted 7-(het)aryl-7-deazapurine ribonucleosides” (J Med Chem, 2014).

Bounds are passed on as bounds.

For the assay, the system named is Mycobacterium tuberculosis. The assay is described as follows: Antimycobacterial activity against Mycobacterium bovis BCG after 5 days by MTT assay. The assay is classed as functional, organism-based. The settings on record: variant bovis BCG, 120 h.

As for `CN(C)c1ncnc2c1c(-c1ccco1)cn2[C@@H]1O[C@H](CO)[C@@H](O)[C@H]1O`, the IC50 (commonly the concentration that gives 50% inhibition) was over 100 µM. The compound `CN(C)c1ncnc2c1c(-c1ccoc1)cn2[C@@H]1O[C@H](CO)[C@@H](O)[C@H]1O` registered an IC50 of over 100 µM.

On to `CN(C)c1ncnc2c1c(-c1cccs1)cn2[C@@H]1O[C@H](CO)[C@@H](O)[C@H]1O`, for which the IC50 is over 100 µM.

Compound `COc1ncnc2c1c(-c1ccccc1)cn2[C@@H]1O[C@H](CO)[C@@H](O)[C@H]1O` showed an IC50 of over 100 µM.

`C#Cc1cn([C@@H]2O[C@H](CO)[C@@H](O)[C@H]2O)c2ncnc(OC)c12` had an IC50 of over 100 µM. For `COc1ncnc2c1c(I)cn2[C@@H]1O[C@H](CO)[C@@H](O)[C@H]1O` the value was over 100 µM. For `CSc1ncnc2c1c(-c1ccco1)cn2[C@@H]1O[C@H](CO)[C@@H](O)[C@H]1O` the value was over 100 µM; for `CSc1ncnc2c1c(-c1ccoc1)cn2[C@@H]1O[C@H](CO)[C@@H](O)[C@H]1O`, over 100 µM. The same measure for `CSc1ncnc2c1c(-c1cccs1)cn2[C@@H]1O[C@H](CO)[C@@H](O)[C@H]1O`: over 100 µM; for `CSc1ncnc2c1c(-c1ccccc1)cn2[C@@H]1O[C@H](CO)[C@@H](O)[C@H]1O`: over 100 µM; for `CSc1ncnc2c1c(-c1cc3ccccc3o1)cn2[C@@H]1O[C@H](CO)[C@@H](O)[C@H]1O`: over 100 µM.

`C#Cc1cn([C@@H]2O[C@H](CO)[C@@H](O)[C@H]2O)c2ncnc(SC)c12` came in with an IC50 of over 100 µM. For `CNc1ncnc2c1c(-c1ccco1)cn2[C@@H]1O[C@H](CO)[C@@H](O)[C@H]1O` the value was over 100 µM. The same measure for `CNc1ncnc2c1c(-c1ccoc1)cn2[C@@H]1O[C@H](CO)[C@@H](O)[C@H]1O`: over 100 µM. With `CNc1ncnc2c1c(-c1cccs1)cn2[C@@H]1O[C@H](CO)[C@@H](O)[C@H]1O`, the IC50 was over 100 µM. Regarding `CNc1ncnc2c1c(-c1ccsc1)cn2[C@@H]1O[C@H](CO)[C@@H](O)[C@H]1O`, the IC50 is over 100 µM. The same measure for `CNc1ncnc2c1c(-c1ccccc1)cn2[C@@H]1O[C@H](CO)[C@@H](O)[C@H]1O`: over 100 µM; for `CNc1ncnc2c1c(-c1cc3ccccc3o1)cn2[C@@H]1O[C@H](CO)[C@@H](O)[C@H]1O`: over 100 µM. The same measure for `C#Cc1cn([C@@H]2O[C@H](CO)[C@@H](O)[C@H]2O)c2ncnc(NC)c12`: over 100 µM; for `COc1ncnc2c1c(-c1ccco1)cn2[C@@H]1O[C@H](CO)[C@@H](O)[C@H]1O`: over 100 µM; for `COc1ncnc2c1c(-c1ccoc1)cn2[C@@H]1O[C@H](CO)[C@@H](O)[C@H]1O`: over 100 µM. For `COc1ncnc2c1c(-c1cccs1)cn2[C@@H]1O[C@H](CO)[C@@H](O)[C@H]1O` the value was over 100 µM; for `COc1ncnc2c1c(-c1ccsc1)cn2[C@@H]1O[C@H](CO)[C@@H](O)[C@H]1O`, over 100 µM; for `COc1ncnc2c1ccn2[C@@H]1O[C@H](CO)[C@@H](O)[C@H]1O`, over 100 µM.
